Where “and” joins values, the source holds several entries; their conditions need not be identical. Equal values may be shown once. Read-outs that look alike come from different tables or passages of the source.
What was measured:
human lung slices = experiment: Methacholine-induced airway constriction in human lung slices; assay type: cell-based; set-up: key to MCh-induced airway constriction response (Figure 7): % of initial airway luminal area; conditions: for MCh-induced airway constriction response (Figure 7): 1 µM Fenoterol + 25 µM Cmpd-6, donor 1-4
Excerpt: All curve fits were generated using the software program GraphPad Prism. Data are represented as mean ± SEM of 4 human donors (see Table 3 for statistical analyses).
Precision-cut human lung slices were purchased from AnaBios and stored in a liquid nitrogen tank. Lung tissue was obtained postmortem and consent for research was obtained by AnaBios for all donors. Characteristics of the donors of the lung tissue are shown in Supplemental Table 2. Slices were rapidly thawed following instructions from AnaBios.
After washing, individual human lung slices were mechanically maintained with a Teflon ring with an inner diameter of 7 mm and covered with 1 mL of incubation buffer. […] Image acquisition software (NIS-Elements, Nikon) was used to quantify airway luminal area. […] Airway constriction in response to each methacholine concentration was expressed as percentage of the initial airway luminal area.

guinea pig lung slices = experiment: Methacholine-induced airway constriction in guinea pig lung slices; assay type: cell-based; conditions: for EC50: read-out: MCh EC50
Procedure: All curve fits were generated using the software program GraphPad Prism. Data are represented as mean ± SEM obtained from 6 guinea pigs.
(§1) Precision-cut lung slices were prepared as described previously ([61], [62]). A 3% solution of low melting-point agarose (Gerbu Biotechnik GmbH) in ultrapure water was prepared by heating it a microwave until fully dissolved. […] After filling, the lungs were covered with ice for 30 minutes to solidify the agarose for slicing. […] Lung slices were cut at a thickness of 500 μm and washed several times with slicing buffer to remove debris and washout the isoproterenol. Slices were incubated overnight in a 60 mm dish in sterile incubation buffer: MEM composed of lung slice buffer supplemented with 0.5 mM sodium pyruvate, 1 mM glutamine (Gibco), MEM-amino acids mixture (1:50), MEM-vitamins mixture (1:100; Gibco), and penicillin-streptomycin (1:100; Gibco), pH = 7.2, at 37°C in a CO2- and humidity-controlled atmosphere.
(§2) After washing the slices in medium, individual guinea pig lung slices were mechanically maintained with a Teflon ring with an inner diameter of 7 mm and covered with 1 mL of incubation buffer. […] Image acquisition software (NIS-Elements, Nikon) was used to quantify airway luminal area. Images of the airways were acquired every 2 seconds during the whole course of the experiment, starting 2 minutes before the addition of any agent to allow for baseline measurements of the airway caliber. For each methacholine or ovalbumin concentration, the maximal airway constriction was expressed as percentage of the initial (baseline) airway luminal area and plotted against that concentration.

[1] = tested on: lung slices obtained from ovalbumin-sensitized guinea pigs; experiment: Ovalbumin-induced airway constriction in lung slices from ovalbumin-sensitized guinea pigs; assay type: cell-based, guinea pig; set-up: key to OVA-induced airway constriction response (Figure 6): max constriction as % of initial (baseline) airway luminal area; conditions: 0.1 µM Fenoterol + 25 µM Cmpd-6, Exp1-5
Excerpt: All curve fits were generated using the software program GraphPad Prism. Data are represented as mean ± SEM of 4–5 guinea pigs (see Table 2 for statistical analyses).
Outbred, male, specified pathogen-free Dunkin Hartley guinea pigs (Charles River Laboratory) weighing 200 to 400 g were used. The animals were housed in pairs under a 12-hour light/dark cycle in a temperature- and humidity-controlled room with food and tap water ad libitum. For studies in the guinea pig model of allergic asthma, animals were actively IgE-sensitized to ovalbumin by injecting a suspension containing 100 μg/mL ovalbumin and 100 mg/mL Al(OH)3 in saline. Each animal was injected with 1.0 mL of suspension: 0.5 mL was injected i.p. and 0.5 mL was divided over 7 s.c. sites close to lymph nodes in the neck, paws, and lumbar regions ([24]). Animals were euthanized at least 4 weeks after sensitization.
as §1, §2

guinea pig β2AR = guinea pig β2AR (Cavia porcellus, UniProt Q8K4Z4); experiment: 125I-CYP radioligand competition binding, guinea pig β2AR; conditions: Cmpd-6 [1 uM]
guinea pig β2AR, sequence (Q8K4Z4 whole entry): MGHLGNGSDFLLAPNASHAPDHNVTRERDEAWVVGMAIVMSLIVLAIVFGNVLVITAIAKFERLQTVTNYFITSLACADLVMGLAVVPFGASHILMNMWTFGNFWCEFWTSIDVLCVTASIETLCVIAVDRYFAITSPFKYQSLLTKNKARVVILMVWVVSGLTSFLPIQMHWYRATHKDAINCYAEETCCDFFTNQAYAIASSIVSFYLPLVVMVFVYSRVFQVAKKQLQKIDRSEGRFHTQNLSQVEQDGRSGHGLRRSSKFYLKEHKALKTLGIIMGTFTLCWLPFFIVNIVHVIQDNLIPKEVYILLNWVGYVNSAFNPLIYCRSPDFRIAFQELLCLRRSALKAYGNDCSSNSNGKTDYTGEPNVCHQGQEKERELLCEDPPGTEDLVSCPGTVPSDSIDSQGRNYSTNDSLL

For `COc1ccc(Sc2ccc(S(=O)(=O)N(C)C(C)C)cc2C(=O)N[C@H](CC(N)=O)Cc2ccc(C(C)(C)C)cc2)cc1` [Cmpd-6], the “MCh Emax” value (human lung slices; 1 μM Fenoterol + 25 μM Cmpd-6) was 26.5 ± 4.4^A %, the “MCh pD2” value (human lung slices; 1 μM Fenoterol + 25 μM Cmpd-6) was 5.52 ± 0.24^B –log M and the “MCh-induced airway constriction response (Figure 7)” value (human lung slices; -Log [MCh] 3.5) was 81.9 and 70.9 and 77.9 and 77.7. For the same molecule, the “MCh-induced airway constriction response (Figure 7)” value (human lung slices; -Log [MCh] 4) was 85.4 and 70.2 and 85.0 and 81, the “MCh-induced airway constriction response (Figure 7)” value (human lung slices; -Log [MCh] 4.5) was 87.4 and 88.5 and 81.1 and 82.0 and the “MCh-induced airway constriction response (Figure 7)” value (human lung slices; -Log [MCh] 5) was 88.4 and 90.1 and 84.2 and 85.0. The “MCh-induced airway constriction response (Figure 7)” value (human lung slices; -Log [MCh] 5.5) was 89.6 and 91.5 and 87.5 and 90.7, the “MCh-induced airway constriction response (Figure 7)” value (human lung slices; -Log [MCh] 6) was 90.7 and 94.3 and 90.0 and 93.1 and the “MCh-induced airway constriction response (Figure 7)” value (human lung slices; -Log [MCh] 6.5) was 93.1 and 102.4 and 95.5 and 94.0. For the same molecule, the “MCh-induced airway constriction response (Figure 7)” value (human lung slices; -Log [MCh] 7) was 93.8 and 102.2 and 98.0 and 97.4, the “MCh-induced airway constriction response (Figure 7)” value (human lung slices; -Log [MCh] 7.5) was 95.1 and 104.8 and 98.8 and 98.9 and the “MCh-induced airway constriction response (Figure 7)” value (human lung slices; -Log [MCh] 8) was 99.2 and 103.1 and 100.8 and 101.6. The “MCh-induced airway constriction response (Figure 7)” value (human lung slices; -Log [MCh] 8.5) was 96.5 and 109.1 and 101.7 and 103.0, the “MCh-induced airway constriction response (Figure 7)” value (human lung slices; -Log [MCh] 9) was 95.6 and 107.7 and 98.0 and 98.3 and the “Enhancement of the β2-agonist responsiveness” value (human lung slices; 25 μM Cmpd-6 + 1 μM fenoterol vs 10 μM fenoterol) was 10 fold. For the same molecule, the “MCh Emax” value (guinea pig lung slices; 1 μM Fenoterol + 25 μM Cmpd-6) was 112.3 ± 9.5%, the EC50 (guinea pig lung slices; 1 μM Fenoterol + 25 μM Cmpd-6) was 0.59 ± 0.09 µM and the “MCh Emax” value (guinea pig lung slices; 10 μM Fenoterol + 25 μM Cmpd-6) was 100.9 ± 3.2%. The EC50 (guinea pig lung slices; 10 μM Fenoterol + 25 μM Cmpd-6) was 0.98 ± 0.12 µM, the “Augmentation of airway smooth muscle responsiveness to fenoterol” value (guinea pig lung slices; 25 μM Cmpd-6) was 10 fold and the “MCh Emax” value (guinea pig lung slices; 25 μM Cmpd-6 alone) was 100.0 ± 2.0%. For the same molecule, the EC50 (guinea pig lung slices; 25 μM Cmpd-6 alone) was 0.28 ± 0.05 µM, the “OVA-induced airway constriction response (Figure 6)” value ([1]; [OVA] 0.001 ng/ml) was 101.6 and 100.0 and 98.0 and 99.2 and 107.5 and the “OVA-induced airway constriction response (Figure 6)” value ([1]; [OVA] 0.01 ng/ml) was 101.3 and 100.0 and 95.9 and 96.7 and 107.5. The “OVA-induced airway constriction response (Figure 6)” value ([1]; [OVA] 0.1 ng/ml) was 101.6 and 100.0 and 97.5 and 97.8 and 107.5, the “OVA-induced airway constriction response (Figure 6)” value ([1]; [OVA] 1 ng/ml) was 101.6 and 99.9 and 95.4 and 99.0 and 107.5 and the “OVA-induced airway constriction response (Figure 6)” value ([1]; [OVA] 10 ng/ml) was 101.3 and 109.6 and 95.4 and 102.0 and 106.4. The “OVA-induced airway constriction response (Figure 6)” value ([1]; [OVA] 100 ng/ml) was 102.3 and 105.5 and 95.6 and 99.3 and 107.0, the “OVA-induced airway constriction response (Figure 6)” value ([1]; [OVA] 1000 ng/ml) was 102.2 and 108.2 and 105.1 and 101.8 and the “OVA-induced airway constriction response (Figure 6)” value ([1]; [OVA] 10000 ng/ml) was 101.8 and 96.8 and 105.1 and 98.0 and 79.6. For the same molecule, the “OVA-induced airway constriction response (Figure 6)” value ([1]; [OVA] 100000 ng/ml) was 101.6 and 81.6 and 100.1 and 89.5 and 64.4, the “OVA-induced airway constriction response (Figure 6)” value ([1]; [OVA] 1000000 ng/ml) was 101.0 and 77.3 and 94.7 and 90.3 and 74.1 and the “125I-CYP binding, ISO competition curve (Figure 4B)” value (“125I-CYP binding” below) (guinea pig β2AR; Log [ISO] (M) -4.49485) was 1.389 and 1.151 and 1.419 and 1.486 and 1.375. For the same molecule, the “125I-CYP binding” value (guinea pig β2AR; Log [ISO] (M) -5.69897) was 11.9867 and 9.239 and 16.2618 and 13.198 and 14.4523, the “125I-CYP binding” value (guinea pig β2AR; Log [ISO] (M) -6.90309) was 60.3981 and 44.4601 and 52.8751 and 61.5704 and 63.6634 and the “125I-CYP binding” value (guinea pig β2AR; Log [ISO] (M) -7.50515) was 85.4929 and 72.4739 and 91.4188 and 87.166 and 89.8825. For the same molecule, the “125I-CYP binding” value (guinea pig β2AR; Log [ISO] (M) -8.70927) was 98.0858 and 100.299 and 96.4593 and 97.8108 and 99.3392, the “125I-CYP binding” value (guinea pig β2AR; Log [ISO] (M) -9.31133) was 102.219 and 97.3579 and 98.2032 and 100.895 and 101.354 and the “125I-CYP binding” value (guinea pig β2AR; Log [ISO] (M) -9.91339) was 101.18 and 98.3743 and 98.3138 and 101.016 and 101.111. For the same molecule, the “125I-CYP binding” value (guinea pig β2AR; Log [ISO] (M) -11 (DMSO)) was 99.0003 and 102.579 and 98.6421 and 100.222 and 97.6049.
